Laboratory results taken from patent US10058584B2, “Methods of improving behavioral therapies” (Emory University, priority 2010, dated 2018).

What was measured:
female voles = conditions: OT administered; without mating 24 hrs or more needed; cited from earlier work
female prairie voles = experiment: Partner preference test immediately after 6 hour cohabitation (experiment 1); type: in vivo, prairie vole; conditions: intraperitoneal, tested immediately after cohabitation, FIG. 1
Description: Social bonding in prairie voles is a complex social cognitive process, which involves the synthesis of social motivation, social information process and social learning. Bonding can be efficiently assayed in the laboratory using a partner preference paradigm (Ahern, 2009). The formation of a partner preference in female prairie voles is dependent on OT (Williams, 1994). In the absence of mating, 24 hrs of cohabitation is typically needed for the development of a partner preference. However, OT administration accelerates partner preference formation to 6 hrs or less. […] Melanotan I (MTI) and Melanotan II (MTII), synthetic α-MSH analogues, which act on melanocortin ¾ receptors, and busprione (BUS), a 5-HT1a receptor partial agonist, We administered to female prairie voles and assessed partner preference. […]
Female prairie voles were injected intraperitoneally with either Melanotan II (1.10 mg/kg; Sigma Aldrich, St. Louis, Mo.), buspirone (8, 30 mg/kg; Sigma Aldrich, St. Louis, Mo.) or a saline control in a dissolved in a volume of 0.1 ml 0.1% sterile saline. […] The pairs were cohabitated for six hours and video recorded to monitor for sexual behavior. […] The videos were analyzed afterwards for mating attempts and animals that mated were excluded from the study. […] The time the subject spent in side by side contact with no joint motion was scored using the CleverSys Behavioral Analysis System. […]

| Compound | cohabitation period to partner preference formation (female voles) [h] | time spent with the partner male vs. the stranger male (partner preference) (female prairie voles; high dose) | time spent with the partner male vs. the stranger male (partner preference) (female prairie voles; low dose) |
| --- | --- | --- | --- |
| CC[C@H](C)[C@@H]1NC(=O)[C@H](Cc2ccc(O)cc2)NC(=O)[C@@H](N)CSSC[C@@H](C(=O)N2CCC[C@H]2C(=O)N[C@@H](CC(C)C)C(=O)NCC(N)=O)NC(=O)[C@H](CC(N)=O)NC(=O)[C@H](CCC(N)=O)NC1=O [OT, Oxytocin] | ≤ 6 |  |  |
| O=C1CC2(CCCC2)CC(=O)N1CCCCN1CCN(c2ncccn2)CC1 [BUS, buspirone] |  | failed to spend significantly more time with either stimulus animal | spent significantly more time with the partner male vs. the stranger male |
